The results in this text go back to US10364256B2 (GlaxoSmithKline Intellectual Property Development Limited, priority 2015, dated 2019).

Experiment [1] addresses T1, Keap1 Kelch domain (321-609) / TAMRA-labeled 16mer NRF2 peptide (ETGE motif) (Homo sapiens, UniProt Q14145).
T1 construct: the Kelch domain (321-609) of Keap1 is used
The experiment in a line: NRF2-Keap1 FP Assay (Keap1 Kelch fluorescence polarization). Type of experiment: binding. Particulars: 20 nM Keap1 (321-609), 8 nM Tamra labeled peptide. In a few lines: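 Compound dilutions (3-fold) were incubated 1 hr at room temperature with 20 nM Keap1 Kelch (321-609) and 8 nM TAMRA-labeled ETGE 16mer peptide. Buffer was 50 mM Tris pH 8.0, 100 mM NaCl, 5 mM MgCl2, 1 mM DTT, 2 mM CHAPS, 0.005% BSA. Fluorescence polarization (mP) was normalized to controls and fitted with a four-parameter equation to give pIC50.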
(In general: In fluorescence polarisation assays a small probe gives low polarisation when free and higher when bound to something large.)

The target of experiment [2] is T2, full length Keap1 protein / full length NRF2 protein (Homo sapiens, UniProt Q14145).
T2 construct: full length NRF2 protein and full length Keap1 protein (Keap1 exists a dimer) are used; His
The experiment in a line: NRF2-Keap1 TR-FRET Assay. Type of experiment: binding. As to conditions: 25 nM Keap1-FlagHis and 50 nM biotin-NRF2 added. The gist of the method: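 Displacement of biotinylated full-length NRF2 from full-length Keap1 read by Eu/APC TR-FRET (665/615 nm) after 1 h detection at RT. Compound, 3-fold series, first incubated with Keap1 at 37 °C for 2.25 h, NRF2 then added at 4 °C for 1.25 h; pIC50 by four-parameter equation.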

T1 sequence (Q14145 321-609): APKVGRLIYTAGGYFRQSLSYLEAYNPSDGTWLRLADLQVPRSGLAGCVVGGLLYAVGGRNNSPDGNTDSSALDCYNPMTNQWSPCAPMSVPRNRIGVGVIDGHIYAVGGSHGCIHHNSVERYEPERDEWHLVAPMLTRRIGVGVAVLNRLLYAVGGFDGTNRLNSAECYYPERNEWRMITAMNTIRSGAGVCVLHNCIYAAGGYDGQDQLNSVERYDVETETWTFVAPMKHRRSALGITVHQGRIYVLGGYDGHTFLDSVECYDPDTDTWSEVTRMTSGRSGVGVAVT
T2 sequence (Q14145 whole entry): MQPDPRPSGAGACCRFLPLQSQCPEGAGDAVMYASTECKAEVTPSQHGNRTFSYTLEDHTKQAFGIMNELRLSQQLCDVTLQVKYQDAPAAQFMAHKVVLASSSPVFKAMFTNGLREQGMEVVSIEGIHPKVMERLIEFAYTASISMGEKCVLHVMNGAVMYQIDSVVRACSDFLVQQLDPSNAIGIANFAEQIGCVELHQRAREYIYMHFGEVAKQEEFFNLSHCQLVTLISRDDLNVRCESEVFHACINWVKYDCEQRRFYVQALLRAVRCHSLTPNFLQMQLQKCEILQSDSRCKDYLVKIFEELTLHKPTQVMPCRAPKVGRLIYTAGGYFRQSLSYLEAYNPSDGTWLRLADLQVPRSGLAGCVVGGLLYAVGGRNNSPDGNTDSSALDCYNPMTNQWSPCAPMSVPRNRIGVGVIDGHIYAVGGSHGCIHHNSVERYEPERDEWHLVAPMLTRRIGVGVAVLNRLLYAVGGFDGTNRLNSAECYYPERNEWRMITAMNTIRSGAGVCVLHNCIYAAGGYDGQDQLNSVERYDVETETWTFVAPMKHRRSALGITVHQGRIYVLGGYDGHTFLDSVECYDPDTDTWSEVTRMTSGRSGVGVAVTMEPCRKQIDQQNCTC

Consider `Cn1cc(C2CC2c2c(C(=O)O)cnn2-c2cccc(-c3cccc(C(O)CC4CCCCC4)c3)c2)nn1` (stereo not drawn) [Example 217, 1-(3′-(2-Cyclohexyl-1-hydroxyethyl)-[1,1′-biphenyl]-3-yl)-5-(2-(1-methyl-1H-1,2,3-triazol-4-yl)cyclopropyl)-1H-pyrazole-4-carboxylic acid], for which the IC50 in experiment [1] and in experiment [2] was 100 to 1000 nM in each case.
Consider `CC(CC1CCCCC1)Oc1cccc(-c2cccc(-n3ncc(C(=O)O)c3C3CC3c3cn(C)nn3)c2)c1` (stereo not drawn) [Example 218, 1-(3′-((1-Cyclohexylpropan-2-yl)oxy)-[1,1′-biphenyl]-3-yl)-5-(2-(1-methyl-1H-1,2,3-triazol-4-yl)cyclopropyl)-1H-pyrazole-4-carboxylic Acid], for which the IC50 lay in the range of 10 to 100 nM in experiment [1] and 100 to 1000 nM in experiment [2].
For `CC(Oc1cccc(-c2cccc(-n3ncc(C(=O)O)c3C3CC3c3cn(C)nn3)c2)c1)C1CCCCC1` (stereo not drawn) [Example 219, 1-(3′-(1-Cyclohexylethoxy)-[1,1′-biphenyl]-3-yl)-5-(2-(1-methyl-1H-1,2,3-triazol-4-yl)cyclopropyl)-1H-pyrazole-4-carboxylic acid] the same measures were 10 to 100 nM and 100 to 1000 nM.
The corresponding values for `Cn1cc(C2CC2c2c(C(=O)O)cnn2-c2cccc(-c3cccc(OCc4ccccc4)c3)c2)nn1` (stereo not drawn) [Example 221] are 100 to 1000 nM and 100 to 1000 nM.
For `Cn1cc(C2CC2c2c(C(=O)O)cnn2-c2cccc(-c3cccc(OCc4ccccc4F)c3)c2)nn1` (stereo not drawn) [Example 222, 1-(3′-((2-Fluorobenzyl)oxy)-[1,1′-biphenyl]-3-yl)-5-(2-(1-methyl-1H-1,2,3-triazol-4-yl)cyclopropyl)-1H-pyrazole-4-carboxylic acid] the same measures were 10 to 100 nM and 100 to 1000 nM.
On to `Cn1cc(C2CC2c2c(C(=O)O)cnn2-c2cccc(-c3cccc(OCc4ccc(F)cc4)c3)c2)nn1` (stereo not drawn) [Example 223, 1-(3′-((4-Fluorobenzyl)oxy)-[1,1′-biphenyl]-3-yl)-5-(2-(1-methyl-1H-1,2,3-triazol-4-yl)cyclopropyl)-1H-pyrazole-4-carboxylic acid], for which the results for the IC50 in experiment [1] and in experiment [2] were 100 to 1000 nM and 1000 to 10000 nM, respectively.
With `Cn1cc(C2CC2c2c(C(=O)O)cnn2-c2cccc(-c3cccc(OCc4cccc(F)c4)c3)c2)nn1` (stereo not drawn) [Example 224, 1-(3′-((3-Fluorobenzyl)oxy)-[1,1′-biphenyl]-3-yl)-5-(2-(1-methyl-1H-1,2,3-triazol-4-yl)cyclopropyl)-1H-pyrazole-4-carboxylic acid], the IC50 in experiment [1] and in experiment [2] was 100 to 1000 nM each time.
Turning to `Cn1cc(C2CC2c2c(C(=O)O)cnn2-c2cccc(-c3cccc(OCCC(C)(C)C)c3)c2)nn1` (stereo not drawn) [Example 225, 1-(3′-(3,3-Dimethylbutoxy)-[1,1′-biphenyl]-3-yl)-5-(2-(1-methyl-1H-1,2,3-triazol-4-yl)cyclopropyl)-1H-pyrazole-4-carboxylic acid], the half-inhibitory concentration (IC50) in experiment [1] was 10 to 100 nM; in experiment [2] it was 100 to 1000 nM.
For `CC(Oc1cccc(-c2cccc(-n3ncc(C(=O)O)c3C3CC3c3cn(C)nn3)c2)c1)C1CCOCC1` (stereo not drawn) [Example 227, 5-(2-(1-Methyl-1H-1,2,3-triazol-4-yl)cyclopropyl)-1-(3′-(1-(tetrahydro-2H-pyran-4-yl)ethoxy)-[1,1′-biphenyl]-3-yl)-1H-pyrazole-4-carboxylic Acid] the same measures were 10 to 100 nM and 10 to 100 nM.
For `CC(Oc1cccc(-c2cccc(-n3ncc(C(=O)O)c3C3CC3c3cn(C)nn3)c2)c1)C1CCCC1` (stereo not drawn) [Example 228, 1-(3′-(1-Cyclopentylethoxy)-[1,1′-biphenyl]-3-yl)-5-(2-(1-methyl-1H-1,2,3-triazol-4-yl)cyclopropyl)-1H-pyrazole-4-carboxylic acid] the same measures were 10 to 100 nM and 100 to 1000 nM.
The corresponding values for `Cn1cc(C2CC2c2c(C(=O)O)cnn2-c2cccc(-c3cccc(OC4CCCCC4)c3)c2)nn1` (stereo not drawn) [Example 229] are 10 to 100 nM and 100 to 1000 nM.
`CC(Oc1cccc(-c2cccc(-n3ncc(C(=O)O)c3C3CC3c3cn(C)nn3)c2)c1)C1CC1` (stereo not drawn) [Example 231, 1-(3′-(1-Cyclopropylethoxy)-[1,1′-biphenyl]-3-yl)-5-(2-(1-methyl-1H-1,2,3-triazol-4-yl)cyclopropyl)-1H-pyrazole-4-carboxylic acid]: the figures for the IC50 in experiment [1] and in experiment [2] were 10 to 100 nM and 100 to 1000 nM, respectively.
For `Cn1cc(C2CC2c2c(C(=O)O)cnn2-c2cccc(-c3cccc(OC4CCCN(C(=O)OC(C)(C)C)C4)c3)c2)nn1` (stereo not drawn) [Example 232, 1-(3′-((1-(tert-Butoxycarbonyl)piperidin-3-yl)oxy)-[1,1′-biphenyl]-3-yl)-5-(2-(1-methyl-1H-1,2,3-triazol-4-yl)cyclopropyl)-1H-pyrazole-4-carboxylic acid] the same measures were 100 to 1000 nM and 10 to 100 nM.
The corresponding values for `Cn1cc(C2CC2c2c(C(=O)O)cnn2-c2cccc(-c3cccc(CCC4CCCCC4)c3)c2)nn1` (stereo not drawn) [Example 233, 1-(3′-(2-Cyclohexylethyl)-[1,1′-biphenyl]-3-yl)-5-(2-(1-methyl-1H-1,2,3-triazol-4-yl)cyclopropyl)-1H-pyrazole-4-carboxylic Acid] are 100 to 1000 nM and 100 to 1000 nM.
The corresponding values for `Cn1cc(C2CC2c2c(C(=O)O)cnn2-c2cccc(-c3cccc(OC4CCOCC4)c3F)c2)nn1` (stereo not drawn) [Example 234, 1-(2′-Fluoro-3′-((tetrahydro-2H-pyran-4-yl)oxy)-[1,1′-biphenyl]-3-yl)-5-(2-(1-methyl-1H-1,2,3-triazol-4-yl)cyclopropyl)-1H-pyrazole-4-carboxylic Acid] are 10 to 100 nM and 100 to 1000 nM.
For `CC(Oc1cccc(-c2cccc(-n3ncc(C(=O)O)c3C3CC3c3cn(C)nn3)c2)c1)c1ccccc1` (stereo not drawn) [Example 235, 5-(2-(1-Methyl-1H-1,2,3-triazol-4-yl)cyclopropyl)-1-(3′-(1-phenylethoxy)-[1,1′-biphenyl]-3-yl)-1H-pyrazole-4-carboxylic Acid], the IC50 in experiment [1] lay within 10 to 100 nM; in experiment [2], 100 to 1000 nM.
For `Cn1cc(C2CC2c2c(C(=O)O)cnn2-c2cccc(-c3cccc(C(=O)C4CCCCC4)c3)c2)nn1` (stereo not drawn) [Example 243, 1-(3′-(Cyclohexanecarbonyl)-[1,1′-biphenyl]-3-yl)-5-(2-(1-methyl-1H-1,2,3-triazol-4-yl)cyclopropyl)-1H-pyrazole-4-carboxylic Acid] the same measures were 10 to 100 nM and 100 to 1000 nM.
The corresponding values for `COC(c1cccc(-c2cccc(-n3ncc(C(=O)O)c3C3CC3c3cn(C)nn3)c2)c1)C1CCCCC1` (stereo not drawn) [Example 244, 1-(3′-(Cyclohexyl(methoxy)methyl)-[1,1′-biphenyl]-3-yl)-5-(2-(1-methyl-1H-1,2,3-triazol-4-yl)cyclopropyl)-1H-pyrazole-4-carboxylic acid] are 10 to 100 nM and 100 to 1000 nM.

The term IC50 denotes the midpoint of a concentration-inhibition curve.
